Reference: patent US10844411B2, “Inhibitors of sterol metabolism for their use to accumulate triglycerides in microalgae, and methods thereof” (Commissariat A L'energie Atomique Et Aux Energies …, priority 2014, dated 2020)

Test system: Nannochloropsis gaditana
Test: Nile Red staining of oil accumulation in Nannochloropsis gaditana incubated with inhibitors of sterol metabolism
Type: cell-based
Settings: ESAW 1N1P and ESAW 10N10P media; time course at least 7 days; FIGS. 5 and 6
Method: Experiments were performed in two different conditions of Nannochloropsis gaditana: cells were either cultured in ESAW containing 47 mg·L^−1 NaNO3 and 3 mg·L^−1 NaH2PO4 (medium 1N1P), or 470 mg/L NaNO3 and 30 mg·L^−1NaH2PO4) (medium 10N10P). Cells in an exponential growth phase were collected via centrifugation at 3500 rpm for 10 minutes. The supernatant was discarded and the cells were resuspended in the same volume of ESAW medium (either 1N1P or 10N10P). The cultures were centrifuged again at 3500 rpm, for 10 minutes, and the supernatant was discarded. The pellet was resuspended in ESAW (either 1N1P or 10N10P) to obtain a concentration of 2×10^6 cells/mL. […]
Each day, an aliquot was taken from each flask in order to perform a Nile Red stain and cell counts. […] In order to detect any background noise, fluorescence was measured at excitation and emission of 530 nm and 580 nm, respectively. […] After 20 minutes of incubation, Nile Red fluorescence was measured at excitation and emission of 530 nm and 580 nm, respectively.
Nile Red Fluorescence was normalized by calculating the relative fluorescence units per million cells. Results were expressed as a percentage of Nile Red fluorescence of Nannochloropsis gaditana cultured in complete medium (either ESAW (10N10P) or ESAW (1N1P)).

SMILES | accumulation of oil (Nile Red fluorescence per million cells)
C#C[C@]1(O)CC[C@H]2[C@@H]3CCc4cc(O)ccc4[C@H]3CC[C@@]21C [Ethinylestradiol] | trigger the accumulation of oil
CN(Cc1ccc(C(C)(C)C)cc1)Cc1cccc2ccccc12 [Butenafine] | trigger the accumulation of oil
